Experimental data from US8697127B2, “Method for preparing microspheres and microspheres produced thereby” (Ewha University-Industry Collaboration Foundation, priority 2008, dated 2014).

Legend:
[1] = Encapsulation ratio of docetaxel, piroxicam, rivastigmine or tolterodine in PLGA microparticles (HPLC); format: physicochemical; details: 0.25 g of 7E, 5 mL of 7 M NaOH
Description: Then, 0.25 g of 7E was dissolved to prepare a dispersed phase. The solution was added to 40 mL of 0.5% PVA aqueous solution and stirred. After adding 5 mL of 7 M NaOH to the resultant o/w emulsion, followed by reaction for 30 minutes, 40 mL of distilled water was further added and, after stirring, microparticles were recovered by filtration. The microparticles were redispersed in 16 mL of 0.5% PVA aqueous solution. After adding distilled water to make 80 mL, the solution was stirred. […] After diluting 6 times with ethanol, the solution was filtered to remove the PLGA precipitate.

[2] = background statement on organic solvents; cited from earlier work
[3] = 50 mg of docetaxel, Ethyl acetate
[4] = 40 mg of tolterodine, Ethyl formate
[5] = 50 mg of piroxicam, Ethyl formate

## CC(=O)O[C@@]12CO[C@@H]1C[C@H](O)[C@@]1(C)C(=O)[C@H](O)C3=C(C)[C@@H](OC(=O)[C@H](O)[C@@H](NC(=O)OC(C)(C)C)c4ccccc4)C[C@@](O)([C@@H](OC(=O)c4ccccc4)[C@H]21)C3(C)C [docetaxel]
[1]; [3]
  Encapsulation ratio (%) Batch 1: 83.2%
  Encapsulation ratio (%) Batch 2: 80.2%
  Encapsulation ratio (%) Batch 3: 84.2%

## Cc1ccc(O)c([C@H](CCN(C(C)C)C(C)C)c2ccccc2)c1 [tolterodine]
[1]; [4]
  Encapsulation ratio (%) Batch 1: 70.3%
  Encapsulation ratio (%) Batch 2: 77.3%
  Encapsulation ratio (%) Batch 3: 73.2%

## CN1C(C(=O)Nc2ccccn2)=C(O)c2ccccc2S1(=O)=O [piroxicam]
[1]; [5]
  Encapsulation ratio (%) Batch 1: 76.2%
  Encapsulation ratio (%) Batch 2: 81.2%
  Encapsulation ratio (%) Batch 3: 79.2%

## CCOC(C)=O [ethyl acetate]
[2]
  water solubility: 8.7 % by weight

## ClCCl [methylene chloride]
[2]
  water solubility: 1.32 % by weight
